Earlier results as cited in US20240264148A1, “SYSTEM AND METHOD OF IDENTIFYING BIOMARKERS FOR CHEMO-RESISTANCE IN CANCER AND IDENTIFYING TARGETS THAT CAN REVERSE CHEMO-RESISTANCE IN CANCER” (OROC, priority 2019, published 2024).

Test system: recurrent ovarian cancer
Settings: patients

## Cc1nc(Nc2ncc(C(=O)Nc3c(C)cccc3Cl)s2)cc(N2CCN(CCO)CC2)n1 [Dasatinib]
  safety and tolerability: safe to use as a drug with good tolerability
